Read-outs that look alike come from different tables or passages of the source.
Tests used:
SK-MEL-28 cells = assay: Inhibitory effect of cancer cell proliferation, MTT; format: cell-based; conditions: Homo sapiens
Experimental: The compounds prepared in the above Examples were evaluated for the inhibitory effect of cancer cell proliferation according to the method described in the following Test Example.
SK-MEL-28 cells derived from human melanoma were used, and the concentration (cell growth inhibitory concentration, IC50) at which cell growth was inhibited to 50% was measured using MTT reagent (3-(4,5-dimethylthiazole-2-yl)-2,5-[…] bromide) to confirm the inhibitory effect of cancer cell proliferation of the drugs synthesized in Examples 1 to 84.
First, SK-MEL-28 cells were cultured in 96-well plates at a cell number of about 1,250 in RPMI-1640 medium containing 11.1 mM glucose and 10% calf blood serum or 0.75 mM glucose and 10% calf blood serum, and were cultured for 16 hours. […] After treatment of the compound, MTT was added to the culture medium to confirm living cells and further cultured for 2 hours. The resulting formazane crystal was dissolved using dimethyl sulfoxide, and the absorbance of the solution was measured at 555 nm. After culturing for 72 hours, the number of viable cells in the well plate treated with the compounds synthesized in the Examples relative to the number of cells cultured in the well plate without treatment of the compounds was expressed as cell viability (%) according to each treatment concentration. By using this, a cell viability curve graph was prepared, and the inhibitory effect of cancer cell proliferation was confirmed by calculating the concentration of the compound whose growth was inhibited to 50% (IC50).

[1] = test system: A549 cell lines (lung cancer cell lines); assay: Oxygen Consumption Rate (OCR) of cells, corrected for cell viability (Cyquant); format: cell-based; conditions: Homo sapiens, read-out: OCR IC50
Experimental: The compounds synthesized by the methods disclosed in the Examples of the present invention have been measured on oxygen consumption rate and extracellular oxidation by the methods disclosed in the Test Examples below.
3×10^3 cells from A549 cell lines (purchased from ATCC-American Type Culture Collection), which are lung cancer cell lines, were placed on XF96 cell culture plates using RPMI1640 medium, and cultured at 37° C. in a 5% CO2 condition for 16 hours or more for attachment.
After 16 hours, the cells were treated with the drug at six different concentrations between 0 μM and 20 μM. After 24 hours, the existing medium was removed, and XF assay medium (15 mM D-Glucose, 15 mM sodium pyruvate, 4 mM L-Glutamine, pH 7.4) was added. The cells were retreated with the drug, and additionally cultured in Prep station at 37° C. in a non-CO2 condition for 1 hour. During the one-hour culture in the Prep station, a sensor cartridge was placed and calibrated for 20 minutes, and a plate with cells was placed to analyze the OCR. After the analysis was completed, XF96 plate was measured for cell viability using Cyquant assay, which measures the amount of intracellular DNA, in the following method. XF assay medium and the drug were removed, and the cells were placed in a cryogenic refrigerator (−80° C.) for at least 4 hours to be frozen. After the plate was made to be at room temperature, a solution where a lysis buffer and fluorescent GR dye were mixed was placed by 200 μL per well. After 20-minute reaction at room temperature, […] was measured between […] to calculate cell viability. A measured value of a well untreated with the drug was converted to 100% by reflecting cell viability to the OCR value. Concentration of a drug which inhibits the OCR value reflecting cell viability by 50% was calculated.

[2] = SK-MEL-28, 0.75 mM glucose, 72 hours, MTT, read-out: SK-MEL-28 0.75 mM glucose Cell viability (IC50 μM)
[3] = SK-MEL-28, 11.1 mM glucose, 72 hours, MTT, read-out: SK-MEL-28 11.1 mM glucose Cell viability (IC50 μM)
[4] = A549 cells, 24 h drug treatment, OCR value reflecting cell viability
[5] = SK-MEL-28, 72 h, read-out: SK-MEL-28 0.75 mM glucose Cell viability (IC50 μM)
[6] = SK-MEL-28, 72 h, read-out: SK-MEL-28 11.1 mM glucose Cell viability (IC50 μM)

Compound	IC50 (SK-MEL-28 cells; [2])	IC50 (SK-MEL-28 cells; [3])	IC50 [1, 4]	IC50 (SK-MEL-28 cells; [5])	IC50 (SK-MEL-28 cells; [6])	IC50 ([1]; A549, 24 h)
Nc1cc[n+](CC2CC2)c(F)c1 [Example 39, 4-Amino-1-(cyclopropylmethyl)-2-fluoropyridinium chloride]	45.3 µM	76.5 µM	2.7 µM			
Nc1cc[n+](CCC2CCCCC2)c(N)c1 [Example 40, 2,4-Diamino-1-(2-cyclohexylethyl)pyridinium bromide]	7.5 µM	30.6 µM	0.9 µM			
CNc1cc[n+](CC2CC2)cc1 [Example 41, 1-(Cyclopropylmethyl)-4-(methylamino)pyridinium chloride]	35.1 µM	234 µM	2.7 µM			
CN(C)c1cc[n+](CC2CC2)cc1 [Example 42, 1-(Cyclopropylmethyl)-4-(dimethylamino)pyridinium chloride]	35 µM	199 µM	1.5 µM			
Cc1c[n+](Cc2ccccc2)ccc1N [Example 43, 4-Amino-3-methyl-1-benzylpyridinium chloride]	14.4 µM	45.5 µM	0.9 µM			
Cc1c[n+](CCc2ccccc2)ccc1N [Example 44, 4-Amino-3-methyl-1-phenethylpyridinium chloride]	15.2 µM	105 µM	1.1 µM			
COc1cc(N)cc[n+]1Cc1ccccc1 [Example 45, 4-Amino-1-benzyl-2-methoxypyridinium chloride]	16.6 µM	81.4 µM	5 µM			
Nc1cc[n+](CC2CCCCC2)cc1 [Example 46, 4-Amino-1-(cyclohexylmethyl)pyridinium bromide]	7.9 µM	49.6 µM	0.8 µM			
Nc1cc[n+](CC2CCC2)cc1 [Example 47, 4-Amino-1-(cyclobutylmethyl)pyridinium bromide]	20.3 µM	167 µM	5 µM			
Nc1cc[n+](CC2CCC2)c(F)c1 [Example 48, 4-Amino-1-(cyclobutylmethyl)-2-fluoropyridinium bromide]	19.9 µM	46.3 µM	0.8 µM			
Nc1cc[n+](Cc2ccc(F)cc2)cc1 [Example 49, 4-Amino-1-(4-fluorobenzyl)pyridinium bromide]	10.3 µM	54.5 µM	2.4 µM			
c1ccc(C[n+]2ccc(N3CCOCC3)cc2)cc1 [Example 50, 1-Benzyl-4-morpholinopyridinium chloride]	13.9 µM	208 µM	1 µM			
c1ccc(CC[n+]2ccc(N3CCOCC3)cc2)cc1 [Example 51, 4-Morpholino-1-phenethylpyridinium chloride]	29.1 µM	201 µM	3.1 µM			
c1c[n+](CC2CC2)ccc1N1CCOCC1 [Example 52, 4-Morpholino-1-(cyclopropylmethyl)pyridinium chloride]	40 µM	367 µM	0.8 µM			
c1c[n+](CCC2CCCCC2)ccc1N1CCOCC1 [Example 53, 1-(2-Cyclohexylethyl)-4-morpholinopyridinium bromide]	8.7 µM	76.4 µM	0.5 µM			
c1ccc(C[n+]2ccc(N3CCCC3)cc2)cc1 [Example 54, 1-Benzyl-4-(pyrrolidin-1-yl)pyridinium chloride]	3.4 µM	29.7 µM	1.1 µM			
c1ccc(CC[n+]2ccc(N3CCCC3)cc2)cc1 [Example 55, 1-Phenethyl-4-(pyrrolidin-1-yl)pyridinium chloride]	0.1 µM	45.9 µM	3.1 µM			
c1c[n+](CC2CC2)ccc1N1CCCC1 [Example 56, 1-(Cyclopropylmethyl)-4-(pyrrolidin-1-yl)pyridinium chloride]	4.4 µM	118 µM	0.8 µM			

Compound	IC50 (SK-MEL-28 cells; [2])	IC50 (SK-MEL-28 cells; [3])	IC50 [1, 4]	IC50 (SK-MEL-28 cells; [5])	IC50 (SK-MEL-28 cells; [6])	IC50 ([1]; A549, 24 h)
c1c[n+](CC2CCCCC2)ccc1N1CCCC1 [Example 57, 1-(Cyclohexylmethyl)-4-(pyrrolidin-1-yl)pyridinium bromide]	1.1 µM	23 µM	0.5 µM			
c1c[n+](CC2CCC2)ccc1N1CCCC1 [Example 58, 1-(Cyclobutylmethyl)-4-(pyrrolidin-1-yl)pyridinium chloride]	3 µM	93.9 µM	2.5 µM			
c1ccc(C[n+]2ccc(N3CCCCC3)cc2)cc1 [Example 59, 1-Benzyl-4-(piperidin-1-yl)pyridinium chloride]	2.8 µM	33.4 µM	2.8 µM			
c1ccc(C[n+]2ccc(N3CCCCCC3)cc2)cc1 [Example 60, 4-(Azepan-1-yl)-1-benzylpyridinium chloride]	20 µM	24.1 µM	3.3 µM			
CC(C)(C)CNc1cc[n+](Cc2ccccc2)cc1 [Example 61, 1-Benzyl-4-(neopentylamino)pyridinium chloride]	1.5 µM		15.7 µM			
c1c[n+](CC2CC2)cc2c1NCCC2 [Example 63, 6-(Cyclopropylmethyl)-1,2,3,4-tetrahydro-1,6-naphthyridin-6-ium chloride]	20.4 µM	208 µM	7.1 µM			
c1c[n+](CC2CC2)cc2c1NCCO2 [Example 64, 6-(Cyclopropylmethyl)-2,3-dihydro-1H-pyrido[3,4-b][1,4]oxazin-6-ium chloride]	21 µM	187 µM	10.2 µM			
c1ccc(C[n+]2ccc(N3CCC3)cc2)cc1 [Example 66, 4-(Azetidin-1-yl)-1-benzylpyridinium chloride]	6.1 µM	77 µM	5.2 µM			
c1csc(C[n+]2ccc(N3CCCC3)cc2)c1 [Example 68, 4-(Pyrrolidin-1-yl)-1-(thiophen-2-ylmethyl)pyridinium chloride]	1.7 µM	38.5 µM	0.8 µM			
c1c[n+](CC2CC2)ccc1N1CCC1 [Example 70, 4-(Azetidin-1-yl)-1-(cyclopropylmethyl)pyridinium chloride]	9.4 µM	49.5 µM	3.4 µM			
c1cc(C[n+]2ccc(N3CCC3)cc2)cs1 [Example 71, 4-(Azetidin-1-yl)-1-(thiophen-3-ylmethyl)pyridinium bromide]	6.8 µM	76.4 µM	3.4 µM			
c1c[se]c(C[n+]2ccc(N3CCCC3)cc2)c1 [Example 72, 4-(Pyrrolidin-1-yl)-1-(selenophen-2-ylmethyl)pyridinium chloride]				2.6 µM	37.2 µM	1 µM
Nc1cc[n+](Cc2ccc[se]2)nc1 [Example 75, 4-Amino-1-(selenophen-2-ylmethyl)pyridazin-1-ium chloride]				57.7 µM	239 µM	18.8 µM
Nc1cc[n+](Cc2ccc[se]2)cc1 [Example 76, 4-Amino-1-(selenophen-2-ylmethyl)pyridinium chloride]				14.1 µM	114 µM	1.5 µM
Nc1cc[n+](Cc2cccs2)cc1 [Example 77, 4-Amino-1-(thiophen-2-ylmethyl)pyridinium chloride]	15.8 µM	106 µM	2.4 µM			
c1coc(C[n+]2ccc(N3CCCC3)cc2)c1 [Example 78, 1-(Furan-2-ylmethyl)-4-(pyrrolidin-1-yl)pyridinium chloride]	3.55 µM	104 µM	2.1 µM			
Cc1ccc(C[n+]2ccc(N3CCCC3)cc2)s1 [Example 79, 1-((5-Methylthiophen-2-yl)methyl)-4-(pyrrolidin-1-yl)pyridinium chloride]	1.16 µM	30.7 µM	0.8 µM			
